Measurements from ChEMBL document CHEMBL3045684, “Compatibility of traditional and novel acaricides with bumblebees (Bombus terrestris): a first laboratory assessment of toxicity and sublethal effects” (Pest Manag Sci, 2010).
The source made the active and inactive calls. No cut-off for these calls is given here.

Experiments:
Bombus terrestris [1] = test: Contact toxicity against worker Bombus terrestris (bumblebee) assessed as mortality at 3 mg a.i./l applied on the dorsal thorax for 11 weeks measured everyday for 3 days followed by once a week for 11 weeks; type: functional
Bombus terrestris [2] = test: Toxicity against worker Bombus terrestris (bumblebee) assessed as reduction in reproduction at 3 mg a.i./l, po administered through sugar water for 11 weeks measured once a week for 11 weeks relative to control; type: functional, organism-based
Bombus terrestris [3] = test: Toxicity against worker Bombus terrestris (bumblebee) assessed as reduction in reproduction at 3 mg a.i./l, po administered through pollen for 11 weeks measured once a week for 11 weeks; type: functional; design: scale not given: the % may be the effect or the level left
Bombus terrestris [4] = test: Toxicity against worker Bombus terrestris (bumblebee) assessed as mortality at 3 mg a.i./l, po administered through pollen for 11 weeks measured everyday for 3 days followed by once a week for 11 weeks; type: functional
Bombus terrestris [5] = test: Contact toxicity against worker Bombus terrestris (bumblebee) assessed as reduction in reproduction at 3 mg a.i./l applied on the dorsal thorax for 11 weeks measured once a week for 11 weeks relative to control; type: functional, organism-based
Bombus terrestris [6] = test: Toxicity against worker Bombus terrestris (bumblebee) assessed as mortality at 3 mg a.i./l, po administered through sugar water for 11 weeks measured everyday for 3 days followed by once a week for 11 weeks; type: functional
Bombus terrestris [7] = test: Toxicity against worker Bombus terrestris (bumblebee) assessed as mortality at 18 mg a.i./l, po administered through pollen measured after 7 weeks; type: functional; details: 1176 h
Bombus terrestris [8] = test: Contact toxicity against worker Bombus terrestris (bumblebee) assessed as mortality at 18 mg a.i./l applied on the dorsal thorax for 11 weeks measured everyday for 3 days followed by once a week for 11 weeks; type: functional
Bombus terrestris [9] = test: Contact toxicity against worker Bombus terrestris (bumblebee) assessed as mortality at 18 mg a.i./l applied on the dorsal thorax measured after 3 to 4 weeks; type: functional, organism-based
Apis mellifera [10] = test: Toxicity against po dosed Apis mellifera (honey bee) assessed per bee after 24 hr; type: functional
Bombus terrestris [11] = test: Toxicity against worker Bombus terrestris (bumblebee) assessed as mortality at 18 mg a.i./l, po administered through pollen measured after 3 weeks; type: functional; details: 504 h
Bombus terrestris [12] = test: Toxicity against worker Bombus terrestris (bumblebee) assessed as mortality at 18 mg a.i./l, po administered through sugar water for 11 weeks measured everyday for 3 days followed by once a week for 11 weeks; type: functional
Bombus terrestris [13] = test: Toxicity against worker Bombus terrestris (bumblebee) assessed as mortality at 18 mg a.i./l, po administered through sugar water measured after 7 weeks; type: functional; details: 1176 h
Bombus terrestris [14] = test: Contact toxicity against worker Bombus terrestris (bumblebee) assessed as reduction in reproduction at 18 mg a.i./l applied on the dorsal thorax for 11 weeks measured once a week for 11 weeks relative to control; type: functional, organism-based
Bombus terrestris [15] = test: Toxicity against worker Bombus terrestris (bumblebee) assessed as mortality at 18 mg a.i./l, po administered through sugar water measured after 9 weeks; type: functional; details: 1512 h
Bombus terrestris [16] = test: Toxicity against worker Bombus terrestris (bumblebee) assessed as mortality at 18 mg a.i./l, po administered through sugar water measured after 11 weeks; type: functional; details: 1848 h
Bombus terrestris [17] = test: Toxicity against worker Bombus terrestris (bumblebee) assessed as reduction in reproduction at 18 mg a.i./l, po administered through pollen for 11 weeks measured once a week for 11 weeks; type: functional, organism-based
Apis mellifera [18] = test: Contact toxicity against Apis mellifera (honey bee) assessed per bee after 24 hr; type: functional
Bombus terrestris [19] = test: Toxicity against worker Bombus terrestris (bumblebee) assessed as mortality at 18 mg a.i./l, po administered through pollen for 11 weeks measured everyday for 3 days followed by once a week for 11 weeks; type: functional
Bombus terrestris [20] = test: Toxicity against po dosed worker Bombus terrestris (bumblebee) administered through sugar water for 11 weeks measured everyday for 3 days followed by once a week for 11 weeks; type: functional
Bombus terrestris [21] = test: Toxicity against worker Bombus terrestris (bumblebee) assessed as mortality at 18 mg a.i./l, po administered through sugar water measured after 1 week; type: functional; details: 168 h
Aphidius colemani = test: Contact toxicity against Aphidius colemani assessed as mortality at 8.5 mg a.i./l; type: functional
Bombus terrestris [22] = test: Toxicity against worker Bombus terrestris (bumblebee) assessed as mortality at 400 mg a.i./l, po administered through sugar water for 11 weeks measured everyday for 3 days followed by once a week for 11 weeks; type: functional
Bombus terrestris [23] = test: Contact toxicity against worker Bombus terrestris (bumblebee) assessed as mortality at 400 mg a.i./l applied on the dorsal thorax for 11 weeks measured everyday for 3 days followed by once a week for 11 weeks; type: functional
Bombus terrestris [24] = test: Toxicity against worker Bombus terrestris (bumblebee) assessed as reduction in reproduction at 400 mg a.i./l, po administered through sugar water for 11 weeks measured once a week for 11 weeks relative to control; type: functional, organism-based
Bombus terrestris [25] = test: Contact toxicity against worker Bombus terrestris (bumblebee) assessed as reduction in reproduction at 400 mg a.i./l applied on the dorsal thorax for 11 weeks measured once a week for 11 weeks relative to control; type: functional, organism-based
Bombus terrestris [26] = test: Toxicity against worker Bombus terrestris (bumblebee) assessed as mortality at 400 mg a.i./l, po administered through sugar water measured up to 1 week; type: functional, organism-based
Bombus terrestris [27] = test: Toxicity against worker Bombus terrestris (bumblebee) assessed as reduction in reproduction at 400 mg a.i./l, po administered through pollen for 11 weeks measured once a week for 11 weeks; type: functional; design: scale not given: the % may be the effect or the level left
Bombus terrestris [28] = test: Toxicity against worker Bombus terrestris (bumblebee) assessed as mortality at 400 mg a.i./l, po administered through pollen for 11 weeks measured everyday for 3 days followed by once a week for 11 weeks; type: functional

**Q.** C[C@@H]1[C@@H](c2ccc(Cl)cc2)SC(=O)N1C(=O)NC1CCCCC1 (relative stereo) [HEXYTHIAZOX] was tested. Which mortality at 3 µg/mL (Bombus terrestris [1]) did it give?
**A.** < 25%

**Q.** And the Activity (Bombus terrestris [2])?
**A.** Active

**Q.** What about the Activity (Bombus terrestris [3]) of the same compound?
**A.** 50%

**Q.** What about the mortality at 3 µg/mL (Bombus terrestris [4]) of the same compound?
**A.** 90%

**Q.** And the Activity (Bombus terrestris [5])?
**A.** inactive

**Q.** What about the mortality at 3 µg/mL (Bombus terrestris [6]) of the same compound?
**A.** < 25%

**Q.** What does the source list for CC[C@H](C)[C@H]1O[C@]2(C=C[C@@H]1C)C[C@@H]1C[C@@H](C/C=C(\C)[C@@H](O[C@H]3C[C@H](OC)[C@@H](O[C@H]4C[C@H](OC)[C@@H](O)[C@H](C)O4)[C@H](C)O3)[C@@H](C)/C=C/C=C3\CO[C@@H]4[C@H](O)C(C)=C[C@@H](C(=O)O1)[C@]34O)O2.CO[C@H]1C[C@H](O[C@H]2[C@H](C)O[C@@H](O[C@@H]3/C(C)=C/C[C@@H]4C[C@@H](C[C@]5(C=C[C@H](C)[C@@H](C(C)C)O5)O4)OC(=O)[C@@H]4C=C(C)[C@@H](O)[C@H]5OC/C(=C\C=C\[C@@H]3C)[C@]54O)C[C@@H]2OC)O[C@@H](C)[C@@H]1O [ABAMECTIN]?
**A.** mortality at 18 µg/mL (Bombus terrestris [7]): 60%; mortality at 18 µg/mL (Bombus terrestris [8]): 100%; Activity (Bombus terrestris [9]): Active; LD50 (Apis mellifera [10]): 0.009 µg; mortality at 18 µg/mL (Bombus terrestris [11]): 40%; mortality at 18 µg/mL (Bombus terrestris [12]): 95%; mortality at 18 µg/mL (Bombus terrestris [13]): 40%; Activity (Bombus terrestris [14]): Active; mortality at 18 µg/mL (Bombus terrestris [15]): 80%; mortality at 18 µg/mL (Bombus terrestris [16]): 100%; Activity (Bombus terrestris [17]): Active; LD50 (Apis mellifera [18]): 0.002 µg; mortality at 18 µg/mL (Bombus terrestris [19]): 90%; LC50 (Bombus terrestris [20]): 1.17 mgAi/L; NOAEL (Bombus terrestris [20]): 0.18 mgAi/L; mortality at 18 µg/mL (Bombus terrestris [21]): 20%; mortality at 8.5 µg/mL (Aphidius colemani): 100%

**Q.** Which results are given for Cc1ccc(/N=C/N(C)/C=N/c2ccc(C)cc2C)c(C)c1 [AMITRAZ]?
**A.** mortality at 400 µg/mL (Bombus terrestris [22]): 95%; mortality at 400 µg/mL (Bombus terrestris [23]): < 25%; Activity (Bombus terrestris [24]): Active; Activity (Bombus terrestris [25]): inactive; Activity (Bombus terrestris [26]): Active; Activity (Bombus terrestris [27]): 50%; mortality at 400 µg/mL (Bombus terrestris [28]): 90%
